The source of these data is patent US8778966B2, “Quinolinone derivatives as PARP and tank inhibitors” (Janssen Pharmaceutica, NV, priority 2007, dated 2014).

Each structure is given as a SMILES string. Bounds are passed on as bounds.

What all share (type): cell-based, human
In one test the test system is PC3 cells. The experiment in a line: EB1 Comet (microtubule disruption) assay. The settings on record: 1 hour treatment; for minimal effective concentration: Homo sapiens, PC-3, 1 h, read-out: EB1 pLAC (converted). Put shortly: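 PC3 human prostate cancer cells exposed to compound for 1 h at 37 °C (0.6% DMSO final), methanol-fixed, immunostained for Eb1 and imaged at 20×. Value is the lowest active concentration (LAC): the concentration at which Eb1 foci are absent in at least 50% of treated cells.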

The subject of the next test is HCT116 cells. The test is described as follows: Antiproliferative activity, Alamar Blue assay, HCT116 cells. Set-up: key to HCT116 antiproliferative activity pIC50: pIC50 = -log IC50 (IC50: conc. reducing growth to 50% of control). The note with it: for IC50: Homo sapiens, HCT-116, HCT116 cells, read-out: HCT116 antiproliferative activity pIC50 (converted). The procedure, abridged:
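HCT116 cells seeded, adhered 24 h, then exposed to compound for 4 days; Alamar Blue (resazurin) added for 4 h at 37 °C, fluorescence read at 540/590 nm. Viability as % of untreated control, triplicate wells; IC50 by probit analysis, reported as pIC50.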
(In general: Resazurin is reduced to fluorescent resorufin, in cell work by metabolically active cells.)

The subject of a further test is PC-3 cells. The experiment in a line: Antiproliferative activity, Alamar Blue assay, PC-3 cells. The note with it: for IC50: Homo sapiens, PC-3, PC3 cells, read-out: PC3 antiproliferative activity pIC50 (converted). Put shortly:
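PC-3 cells seeded at 4.5×10^3 cells/ml, left to adhere 24 hr, then exposed to compound for 4 days. Resazurin (Alamar Blue) added for a further 24 hrs at 37° C; fluorescence read at 540/590 nm. Viability as % of untreated control, mean of 3 wells; IC50 by probit analysis, reported as pIC50.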

Consider `Cc1cc2ccc([C@](C)(C#N)C3CCc4cccnc43)cc2[nH]c1=O` (single isomer, unassigned) [Compound 388], for which, in the test with PC3 cells, the minimal effective concentration is over 10 µM. In addition, the IC50 was 6310 nM in the test on HCT116 cells and 10000 nM in the test on PC-3 cells.

Take `Cc1cc2ccc(C(C)(C#N)C3CCc4ccc(Br)cc43)cc2[nH]c1=O` (stereo not drawn) [Compound 249]: the minimal effective concentration in the test on PC3 cells is 0.178 µM. Further, the IC50 was 158 nM with HCT116 cells and 251 nM in the test with PC-3 cells.

As for `CCc1cc2ccc(C(C#N)(CC)Cc3cccc(C#N)n3)cc2[nH]c1=O` (stereo not drawn) [Compound 342], the minimal effective concentration in the test on PC3 cells was 3.16 µM. Moreover, the IC50 in the test with HCT116 cells was 501 nM; with PC-3 cells it was 1260 nM.

As to `CCc1cc2ccc(C(C#N)(CC)Cc3cccc(F)c3)cc2[nH]c1=O` (stereo not drawn) [Compound 270], in the test on PC3 cells, the minimal effective concentration was 3.16 µM. Moreover, the IC50 is 1580 nM with HCT116 cells and 3160 nM with PC-3 cells.

In the case of `CCc1cc2ccc(C(C)(C#N)Cc3ccc(OC)nc3Cl)cc2[nH]c1=O` (stereo not drawn) [Compound 224], in the test on PC3 cells, the minimal effective concentration is 0.316 µM. Moreover, the IC50 in the test with HCT116 cells is 2000 nM; in the test on PC-3 cells, 3160 nM.

Turning to `CCc1cc2ccc(C(C)(C#N)Cc3cccc(OCc4ccccc4)c3)cc2[nH]c1=O` (stereo not drawn) [Compound 23], the minimal effective concentration in the test with PC3 cells was 10 µM. Also, the values for the IC50 with HCT116 cells and with PC-3 cells were 3160 nM and 5010 nM, respectively.

On to `CCc1cc2ccc(C(C)(C#N)Cc3cc(OC)cc(OC)n3)cc2[nH]c1=O` (stereo not drawn) [Compound 232], for which the minimal effective concentration with PC3 cells was 0.1 µM. Further, the IC50 in the test with HCT116 cells was 100 nM; in the test with PC-3 cells, 251 nM.

As for `CCc1cc2ccc(C(C)(C#N)Cc3cccc(N4CCOCC4)c3)cc2[nH]c1=O` (stereo not drawn) [Compound 21], in the test with PC3 cells, the minimal effective concentration is 1 µM. The IC50 was 1260 nM in the test on HCT116 cells and 2000 nM with PC-3 cells.

For the molecule `CCc1cc2ccc(C(C#N)(CC)Cc3nc(C#N)cc(OC)n3)cc2[nH]c1=O` (stereo not drawn) [Compound 316], in the test with PC3 cells, the minimal effective concentration was 3.16 µM. Also, the results for the IC50 in the test on HCT116 cells and in the test on PC-3 cells were 631 nM and 1260 nM, respectively.

For the molecule `CCc1cc2ccc(C(C)(C#N)Cc3cccc(-c4ccccc4)c3)cc2[nH]c1=O` (stereo not drawn) [Compound 18], the minimal effective concentration with PC3 cells is 1 µM. Besides, the figures for the IC50 with HCT116 cells and with PC-3 cells were 5010 nM and 1260 nM, respectively.

For the molecule `CCc1cc2ccc(C(C)(C#N)Cc3cc4ccccc4nn3)cc2[nH]c1=O` (stereo not drawn) [Compound 238], the minimal effective concentration in the test on PC3 cells is 1 µM. In addition, the figures for the IC50 with HCT116 cells and in the test with PC-3 cells were 1580 nM and 3980 nM, respectively.

On to `CCc1cc2ccc([C@](C)(C#N)C[C@H]3Cc4ccccc4O3)cc2[nH]c1=O` [Compound 397], for which the minimal effective concentration in the test with PC3 cells is 3.16 µM. Also, the IC50 with HCT116 cells is 7940 nM; with PC-3 cells, 10000 nM.

With `CCc1cc2ccc(C(C#N)(CC)Cc3cccc(C#N)c3)cc2[nH]c1=O` (stereo not drawn) [Compound 265], the minimal effective concentration in the test on PC3 cells is 1 µM. Further, the IC50 in the test on HCT116 cells is 501 nM; with PC-3 cells it was 1000 nM.

In the case of `CCc1cc2ccc(C(C)(C#N)Cc3cc(C#N)cc4c3OCC4)cc2[nH]c1=O` (stereo not drawn) [Compound 236], the minimal effective concentration with PC3 cells is 0.316 µM. The IC50 was 200 nM with HCT116 cells and 501 nM in the test with PC-3 cells.

In the case of `CCOc1cc(C#N)nc(CC(C)(C#N)c2ccc3cc(CC)c(=O)[nH]c3c2)n1` (stereo not drawn) [Compound 315], the minimal effective concentration with PC3 cells is 1 µM. Further, the IC50 with HCT116 cells was 631 nM; in the test with PC-3 cells, 1260 nM.

As to `CCc1cc2ccc(C(C)(C#N)Cc3cccc(S(F)(F)(F)(F)F)c3)cc2[nH]c1=O` (stereo not drawn) [Compound 177], the minimal effective concentration in the test with PC3 cells is 1 µM. Also, the IC50 in the test on HCT116 cells was 2000 nM; in the test with PC-3 cells, 3160 nM.

As to `CCc1cc2ccc(C(C)(C#N)Cc3cccc(I)c3)cc2[nH]c1=O` (stereo not drawn) [Compound 19], the minimal effective concentration in the test with PC3 cells was 0.316 µM. Besides, the figures for the IC50 in the test on HCT116 cells and in the test on PC-3 cells were 50.1 nM and 158 nM, respectively.

Regarding `CCc1cc2ccc(C(C)(C#N)Cc3ccc(Cl)nc3OC)cc2[nH]c1=O` (stereo not drawn) [Compound 225], the minimal effective concentration in the test with PC3 cells was 1 µM. The IC50 in the test on HCT116 cells is 501 nM; in the test on PC-3 cells, 794 nM.

In the case of `CCc1cc2ccc(C(C)(C#N)Cc3cccc(OCCOC)c3)cc2[nH]c1=O` (stereo not drawn) [Compound 24], in the test with PC3 cells, the minimal effective concentration is 1 µM. For the same molecule, the IC50 in the test on HCT116 cells and in the test on PC-3 cells was 1000 nM in each case.

Turning to `CCc1cc2ccc(C(C)(C#N)CCOc3ncc(Br)cn3)cc2[nH]c1=O` (stereo not drawn) [Compound 349], in the test on PC3 cells, the minimal effective concentration was 1 µM. In addition, the IC50 is 631 nM in the test on HCT116 cells and 1580 nM in the test with PC-3 cells.

As for `CCOc1cc(N(C)C)nc(CC(C)(C#N)c2ccc3cc(CC)c(=O)[nH]c3c2)n1` (stereo not drawn) [Compound 312], in the test on PC3 cells, the minimal effective concentration is 1 µM. Moreover, the values for the IC50 in the test with HCT116 cells and in the test on PC-3 cells were 501 nM and 1000 nM, respectively.

Turning to `Cc1cc2ccc(C(C)(C#N)Cc3cccc(Oc4ccccn4)c3)cc2[nH]c1=O` (stereo not drawn) [Compound 304], the minimal effective concentration in the test on PC3 cells is 0.1 µM. For the same molecule, the IC50 was 251 nM in the test with HCT116 cells and 398 nM in the test with PC-3 cells.

Take `C=C(C)c1cccc(CC(C)(C#N)c2ccc3cc(CC)c(=O)[nH]c3c2)c1` (stereo not drawn) [Compound 254]: the minimal effective concentration in the test with PC3 cells is 1 µM. For the same molecule, the IC50 is 501 nM in the test with HCT116 cells and 794 nM in the test with PC-3 cells.

For `Cc1cc2ccc([C@@](C)(C#N)[C@H]3CCc4cc(Br)ccc43)cc2[nH]c1=O` [Compound 241], the minimal effective concentration in the test on PC3 cells is 0.316 µM. Also, the IC50 was 501 nM in the test with HCT116 cells and 794 nM with PC-3 cells.

For the molecule `COc1cc2ccc(C(C)(C#N)Cc3cccc(C#N)n3)cc2[nH]c1=O` (stereo not drawn) [Compound 218], the minimal effective concentration with PC3 cells is 0.316 µM. The IC50 in the test with HCT116 cells and in the test with PC-3 cells was 1260 nM each time.

As for `CCc1cc2ccc(C(C)(C#N)CN3CCc4ccccc4C3)cc2[nH]c1=O` (stereo not drawn) [Compound 376], the minimal effective concentration with PC3 cells was 3.16 µM. Further, the IC50 with HCT116 cells was 2000 nM; in the test with PC-3 cells it was 2510 nM.

As for `CCc1cc2ccc(C(C#N)(CC)Cc3cccc(OC)c3)cc2[nH]c1=O` (stereo not drawn) [Compound 287], in the test on PC3 cells, the minimal effective concentration is 0.316 µM. The IC50 in the test with HCT116 cells and with PC-3 cells was 1260 nM throughout.

Consider `Cc1cc2ccc(C(C)(C#N)C3CCc4c(C#N)cccc43)cc2[nH]c1=O` (racemic) [Compound 393], for which the minimal effective concentration with PC3 cells is 10 µM. For the same molecule, the IC50 in the test on HCT116 cells is 6310 nM; in the test with PC-3 cells it was 10000 nM.

On to `Cc1cc2ccc(C(C)(C#N)C3CCc4ccc(C#N)cc43)cc2[nH]c1=O` (stereo not drawn) [Compound 250], for which the minimal effective concentration in the test with PC3 cells is 0.316 µM. The IC50 with HCT116 cells is 200 nM; with PC-3 cells, 316 nM.

For `Cc1cc2ccc([C@@](C)(C#N)[C@@H]3CCc4cc(Br)ccc43)cc2[nH]c1=O` [Compound 240], in the test on PC3 cells, the minimal effective concentration was over 10 µM. The IC50 in the test with HCT116 cells and in the test on PC-3 cells was 10000 nM throughout.

Regarding `CCc1cc2ccc(C(C)(C#N)Cc3cccc(C4(N)CC4)c3)cc2[nH]c1=O` (stereo not drawn) [Compound 180], the minimal effective concentration in the test with PC3 cells was 3.16 µM. In addition, the IC50 with HCT116 cells is 2000 nM; with PC-3 cells, 3160 nM.

In the case of `CCc1cc2ccc(C(C)(C#N)Cc3cccc(N4CCCC4)n3)cc2[nH]c1=O` (stereo not drawn) [Compound 226], the minimal effective concentration with PC3 cells was 3.16 µM. Further, the IC50 was 1260 nM in the test with HCT116 cells and 1580 nM in the test with PC-3 cells.

As to `Cc1cc2ccc(C(C)(C#N)C3CCc4c(Br)cccc43)cc2[nH]c1=O` (stereo not drawn) [Compound 248], in the test on PC3 cells, the minimal effective concentration is 0.316 µM. The figures for the IC50 with HCT116 cells and in the test with PC-3 cells were 501 nM and 794 nM, respectively.

On to `CCc1cc2ccc(C(C)(C#N)Cc3cccc(N(C)C)c3)cc2[nH]c1=O` (stereo not drawn) [Compound 20], for which, in the test with PC3 cells, the minimal effective concentration is 0.1 µM. Besides, the IC50 with HCT116 cells and in the test on PC-3 cells was 200 nM each time.

`CCc1cc2ccc(C(C)(C#N)Cc3ccnc(Cl)c3)cc2[nH]c1=O` (stereo not drawn) [Compound 341]: the minimal effective concentration in the test on PC3 cells was 10 µM. Further, the IC50 in the test with HCT116 cells is 2510 nM; in the test on PC-3 cells, 6310 nM.

As to `CCc1cc2ccc(C(C)(C#N)Cc3ccc(C(F)(F)F)nc3C)cc2[nH]c1=O` (stereo not drawn) [Compound 340], the minimal effective concentration with PC3 cells was 10 µM. Besides, the results for the IC50 in the test on HCT116 cells and with PC-3 cells were 3160 nM and 3980 nM, respectively.

Regarding `Cc1cc2ccc(C(C)(C#N)Cc3cccc(Oc4ccccc4)n3)cc2[nH]c1=O` (stereo not drawn) [Compound 193], in the test with PC3 cells, the minimal effective concentration is 0.1 µM. The IC50 in the test on HCT116 cells was 398 nM; in the test on PC-3 cells, 631 nM.

As for `Cc1cc2ccc(C(C)(C#N)C3CCc4cc(Br)ccc43)cc2[nH]c1=O` (stereo not drawn) [Compound 244], in the test on PC3 cells, the “EB1 pLAC” value came out at 7. Besides, the “HCT116 antiproliferative activity pIC50” value in the test with HCT116 cells (HCT116 cells) turned out to be 6.8. For the same molecule, the “PC3 antiproliferative activity pIC50” value in the test with PC-3 cells (PC3 cells) was 6.6.
